# Results published in patent publication EP3072956A1, “Selective culture medium for polymyxin-resistant, gram-negative bacteria” (priority 2015, dated 2016).
# Columns and labels:
# Assay in all cases: MIC determination by broth microdilution (MHB-CA, CLSI)
# Assay type in all cases: cell-based
# B. cepacia = conditions: strain Bcep
# Experimental: (§1) Determination of MIC values were performed by broth microdilution in Cation-Adjusted Mueller-Hinton broth (MHB-CA) according to the CLSI guidelines (Clinical and Laboratory Standards Institute). Polymyxin B and colistin (Sigma-Aldrich, Saint-Louis) were tested with or without Tween 80 over a range dilution from 0.12 to 128 µg/ml. The surfactant Tween 80, at a final concentration of 0.002%, prevents the binding of polymyxins to multi-array plastic panel. Actually, the use of Tween for determination of MIC of polymyxins is still debatable. MHB-CA broth and 5.10^5 CFU/ml of each tested strain were distributed in each well. Following the EUCAST breakpoints, strains were characterized as susceptible or resistant to polymyxins.
# P. vulgaris = conditions: strain Pvul
# Experimental: as §1
# E. cloacae = system: E. cloacae
# Experimental: as §1
# P. mirabilis = conditions: strain Pmir
# Experimental: as §1
# K. pneumoniae = system: K. pneumoniae
# Experimental: as §1
# A. baumannii = system: A. baumannii
# Experimental: as §1
# H. alvei = conditions: strain ER
# Experimental: as §1
# S. maltophilia = system: S. maltophilia
# Experimental: as §1
# K. oxytoca = conditions: strain C24
# Experimental: as §1
# P. aeruginosa = system: P. aeruginosa
# Experimental: as §1
# S. marcescens = conditions: strain Smar
# Experimental: as §1
# E. coli = system: E. coli
# Experimental: as §1
# C. freundii = system: C. freundii
# Experimental: as §1
substance,measurement,setting,value
polymyxin B,MIC,B. cepacia; With Tween80,>128 µg/mL
same,MIC,B. cepacia; Without Tween80,>128 µg/mL
same,MIC,P. vulgaris; With Tween80,>128 µg/mL
same,MIC,P. vulgaris; Without Tween80,>128 µg/mL
same,MIC,"E. cloacae; strain 38A10, With Tween80",0.25 µg/mL
same,MIC,"E. cloacae; strain 38A10, Without Tween80",0.25 µg/mL
same,MIC,"E. cloacae; strain C28, With Tween80",16 µg/mL
same,MIC,"E. cloacae; strain C28, Without Tween80",16 µg/mL
same,MIC,"E. cloacae; strain C129, With Tween80",0.25 µg/mL
same,MIC,"E. cloacae; strain C129, Without Tween80",0.25 µg/mL
same,MIC,"E. cloacae; strain C144, With Tween80",0.12 µg/mL
same,MIC,"E. cloacae; strain C144, Without Tween80",0.25 µg/mL
same,MIC,"E. cloacae; strain HM, With Tween80",>128 µg/mL
same,MIC,"E. cloacae; strain HM, Without Tween80",>128 µg/mL
same,MIC,P. mirabilis; With Tween80,>128 µg/mL
same,MIC,P. mirabilis; Without Tween80,>128 µg/mL
same,MIC,"K. pneumoniae; strain 12E2, With Tween80",64 µg/mL
same,MIC,"K. pneumoniae; strain 12E2, Without Tween80",64 µg/mL
same,MIC,"K. pneumoniae; strain 13G2, With Tween80",64 µg/mL
same,MIC,"K. pneumoniae; strain 13G2, Without Tween80",64 µg/mL
same,MIC,"K. pneumoniae; strain 18J1, With Tween80",32 µg/mL
same,MIC,"K. pneumoniae; strain 18J1, Without Tween80",32 µg/mL
same,MIC,"K. pneumoniae; strain 36A4, With Tween80",0.25 µg/mL
same,MIC,"K. pneumoniae; strain 36A4, Without Tween80",0.25 µg/mL
same,MIC,"K. pneumoniae; strain 36A5, With Tween80",0.12 µg/mL
same,MIC,"K. pneumoniae; strain 36A5, Without Tween80",0.12 µg/mL
same,MIC,"K. pneumoniae; strain 36A7, With Tween80",0.5 µg/mL
same,MIC,"K. pneumoniae; strain 36A7, Without Tween80",0.5 µg/mL
same,MIC,"K. pneumoniae; strain 38B7, With Tween80",0.5 µg/mL
same,MIC,"K. pneumoniae; strain 38B7, Without Tween80",0.12 µg/mL
same,MIC,"K. pneumoniae; strain 75b, With Tween80",128 µg/mL
same,MIC,"K. pneumoniae; strain 75b, Without Tween80",128 µg/mL
same,MIC,"K. pneumoniae; strain 1118, With Tween80",32 µg/mL
same,MIC,"K. pneumoniae; strain 1118, Without Tween80",32 µg/mL
same,MIC,"K. pneumoniae; strain 1515, With Tween80",32 µg/mL
same,MIC,"K. pneumoniae; strain 1515, Without Tween80",32 µg/mL
same,MIC,"K. pneumoniae; strain AF1b, With Tween80",8 µg/mL
same,MIC,"K. pneumoniae; strain AF1b, Without Tween80",8 µg/mL
same,MIC,"K. pneumoniae; strain BICb, With Tween80",128 µg/mL
same,MIC,"K. pneumoniae; strain BICb, Without Tween80",128 µg/mL
same,MIC,"K. pneumoniae; strain C1, With Tween80",64 µg/mL
same,MIC,"K. pneumoniae; strain C1, Without Tween80",128 µg/mL
same,MIC,"K. pneumoniae; strain C3, With Tween80",16 µg/mL
same,MIC,"K. pneumoniae; strain C3, Without Tween80",32 µg/mL
same,MIC,"K. pneumoniae; strain C7, With Tween80",>128 µg/mL
same,MIC,"K. pneumoniae; strain C7, Without Tween80",>128 µg/mL
same,MIC,"K. pneumoniae; strain C11, With Tween80",64 µg/mL
same,MIC,"K. pneumoniae; strain C11, Without Tween80",128 µg/mL
same,MIC,"K. pneumoniae; strain C12, With Tween80",64 µg/mL
same,MIC,"K. pneumoniae; strain C12, Without Tween80",128 µg/mL
same,MIC,"K. pneumoniae; strain C16, With Tween80",64 µg/mL
same,MIC,"K. pneumoniae; strain C16, Without Tween80",32 µg/mL
same,MIC,"K. pneumoniae; strain C21, With Tween80",128 µg/mL
same,MIC,"K. pneumoniae; strain C21, Without Tween80",128 µg/mL
same,MIC,"K. pneumoniae; strain C22, With Tween80",64 µg/mL
same,MIC,"K. pneumoniae; strain C22, Without Tween80",64 µg/mL
same,MIC,"K. pneumoniae; strain C25, With Tween80",32 µg/mL
same,MIC,"K. pneumoniae; strain C25, Without Tween80",64 µg/mL
same,MIC,"K. pneumoniae; strain C26, With Tween80",128 µg/mL
same,MIC,"K. pneumoniae; strain C26, Without Tween80",128 µg/mL
same,MIC,"K. pneumoniae; strain C27, With Tween80",>128 µg/mL
same,MIC,"K. pneumoniae; strain C27, Without Tween80",>128 µg/mL
same,MIC,"K. pneumoniae; strain C112, With Tween80",0.25 µg/mL
same,MIC,"K. pneumoniae; strain C112, Without Tween80",0.25 µg/mL
same,MIC,"K. pneumoniae; strain C115, With Tween80",0.12 µg/mL
same,MIC,"K. pneumoniae; strain C115, Without Tween80",0.5 µg/mL
same,MIC,"K. pneumoniae; strain C130, With Tween80",0.5 µg/mL
same,MIC,"K. pneumoniae; strain C130, Without Tween80",0.25 µg/mL
same,MIC,"K. pneumoniae; strain C132, With Tween80",0.5 µg/mL
same,MIC,"K. pneumoniae; strain C132, Without Tween80",0.25 µg/mL
same,MIC,"K. pneumoniae; strain Kp OmpK3 5-OmpK3 6-, With Tween80",0.12 µg/mL
same,MIC,"K. pneumoniae; strain Kp OmpK3 5-OmpK3 6-, Without Tween80",0.125 µg/mL
same,MIC,"K. pneumoniae; strain Sa, With Tween80",64 µg/mL
same,MIC,"K. pneumoniae; strain Sa, Without Tween80",64 µg/mL
same,MIC,"K. pneumoniae; strain T1b, With Tween80",64 µg/mL
same,MIC,"K. pneumoniae; strain T1b, Without Tween80",64 µg/mL
same,MIC,"K. pneumoniae; strain T4, With Tween80",32 µg/mL
same,MIC,"K. pneumoniae; strain T4, Without Tween80",32 µg/mL
same,MIC,"K. pneumoniae; strain T5, With Tween80",32 µg/mL
same,MIC,"K. pneumoniae; strain T5, Without Tween80",32 µg/mL
same,MIC,"A. baumannii; strain 38B9, With Tween80",0.25 µg/mL
same,MIC,"A. baumannii; strain 38B9, Without Tween80",0.5 µg/mL
same,MIC,"A. baumannii; strain Aba6, With Tween80",128 µg/mL
same,MIC,"A. baumannii; strain Aba6, Without Tween80",128 µg/mL
same,MIC,"A. baumannii; strain C105, With Tween80",0.12 µg/mL
same,MIC,"A. baumannii; strain C105, Without Tween80",0.5 µg/mL
same,MIC,H. alvei; With Tween80,16 µg/mL
same,MIC,H. alvei; Without Tween80,8 µg/mL
same,MIC,"S. maltophilia; strain Sm2, With Tween80",>128 µg/mL
same,MIC,"S. maltophilia; strain Sm2, Without Tween80",>128 µg/mL
same,MIC,"S. maltophilia; strain SmA51, With Tween80",32 µg/mL
same,MIC,"S. maltophilia; strain SmA51, Without Tween80",32 µg/mL
same,MIC,K. oxytoca; With Tween80,64 µg/mL
same,MIC,K. oxytoca; Without Tween80,64 µg/mL
same,MIC,"P. aeruginosa; strain 38J8, With Tween80",0.25 µg/mL
same,MIC,"P. aeruginosa; strain 38J8, Without Tween80",1 µg/mL
same,MIC,"P. aeruginosa; strain ATCC 27853, With Tween80",0.12 µg/mL
same,MIC,"P. aeruginosa; strain ATCC 27853, Without Tween80",0.5 µg/mL
same,MIC,"P. aeruginosa; strain C111, With Tween80",0.25 µg/mL
same,MIC,"P. aeruginosa; strain C111, Without Tween80",1 µg/mL
same,MIC,"P. aeruginosa; strain C131, With Tween80",0.25 µg/mL
same,MIC,"P. aeruginosa; strain C131, Without Tween80",1 µg/mL
same,MIC,"P. aeruginosa; strain C133, With Tween80",0.5 µg/mL
same,MIC,"P. aeruginosa; strain C133, Without Tween80",1 µg/mL
same,MIC,S. marcescens; With Tween80,>128 µg/mL
same,MIC,S. marcescens; Without Tween80,>128 µg/mL
same,MIC,"E. coli; strain 36A6, With Tween80",0.12 µg/mL
same,MIC,"E. coli; strain 36A6, Without Tween80",0.12 µg/mL
same,MIC,"E. coli; strain 36D7, With Tween80",0.12 µg/mL
same,MIC,"E. coli; strain 36D7, Without Tween80",0.12 µg/mL
same,MIC,"E. coli; strain 38D6, With Tween80",0.12 µg/mL
same,MIC,"E. coli; strain 38D6, Without Tween80",0.12 µg/mL
same,MIC,"E. coli; strain 27563, With Tween80",8 µg/mL
same,MIC,"E. coli; strain 27563, Without Tween80",16 µg/mL
same,MIC,"E. coli; strain 27837, With Tween80",8 µg/mL
same,MIC,"E. coli; strain 27837, Without Tween80",8 µg/mL
same,MIC,"E. coli; strain 27850, With Tween80",8 µg/mL
same,MIC,"E. coli; strain 27850, Without Tween80",8 µg/mL
same,MIC,"E. coli; strain 27852, With Tween80",4 µg/mL
same,MIC,"E. coli; strain 27852, Without Tween80",4 µg/mL
same,MIC,"E. coli; strain 28509, With Tween80",2 µg/mL
same,MIC,"E. coli; strain 28509, Without Tween80",2 µg/mL
same,MIC,"E. coli; strain 30742, With Tween80",4 µg/mL
same,MIC,"E. coli; strain 30742, Without Tween80",4 µg/mL
same,MIC,"E. coli; strain ATCC 25922, With Tween80",0.12 µg/mL
same,MIC,"E. coli; strain ATCC 25922, Without Tween80",0.25 µg/mL
same,MIC,"E. coli; strain C140, With Tween80",0.12 µg/mL
same,MIC,"E. coli; strain C140, Without Tween80",0.25 µg/mL
same,MIC,"E. coli; strain Eco OmpC-OmpF-, With Tween80",0.12 µg/mL
same,MIC,"E. coli; strain Eco OmpC-OmpF-, Without Tween80",0.125 µg/mL
same,MIC,"C. freundii; strain 38B2, With Tween80",0.5 µg/mL
same,MIC,"C. freundii; strain 38B2, Without Tween80",0.5 µg/mL
same,MIC,"C. freundii; strain C136, With Tween80",0.25 µg/mL
same,MIC,"C. freundii; strain C136, Without Tween80",0.5 µg/mL
